Consider eleven compounds from ChEMBL document CHEMBL1201862, “PubChem BioAssay data set” (2004).

SMILES strings stand for the structures.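 Step 1: Grow cells in 96-well plates. Step 2: Expose to compound for 48 hours at 5 concentrations. Step 3: Interpolate endpoints linearly; if unreached, use highest concentration. The concentration for 50% growth inhibition is given as GI50.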 Active and inactive are the calls of the source. Cut-off read from the data, not from the text of the source: active = GI50 up to about 1.1 µM and inactive = higher.

Among the test systems are T47D; SK-OV-3; ACHN; OVCAR-8; RPMI-8226; SK-MEL-2; MCF7; SK-MEL-28; SW-620; HCT-15; NCI-H460; DU-145; NCI-H226; UACC-257; NCI-H23; COLO 205; K562; SR; SF-295; UO-31.
Holding throughout (assay): NCI-60 cell line screen, 48 h

For `NC1(P(=O)(O)O)CCCCC1`, the GI50 with T47D, with SK-OV-3, with ACHN, with OVCAR-8, with RPMI-8226 and in the assay on SK-MEL-2 was > 100 µM (inactive) throughout. Moreover, the GI50 in the assay on MCF7 is > 100 µM (inactive); in the assay with SK-MEL-28, > 100 µM (inactive); with SW-620, > 100 µM (inactive); with HCT-15, above 100 µM; in the assay on NCI-H460, > 100 µM (inactive); with DU-145, > 100 µM (inactive). The GI50 with NCI-H226, with UACC-257, in the assay with NCI-H23, in the assay with COLO 205, in the assay on K562 and in the assay on SR was > 100 µM (inactive) in each case. In addition, the GI50 in the assay on SF-295 was > 100 µM (inactive).
As to `CSc1ncc2c(n1)-c1ccccc1OC2NC1CC1` (stereo unspecified), the GI50 was 28.6 µM (inactive) with T47D; > 100 µM (inactive) with SK-OV-3; 49.5 µM (inactive) in the assay on ACHN; 71.4 µM (inactive) with OVCAR-8; 31.3 µM (inactive) with RPMI-8226; > 100 µM (inactive) with SK-MEL-2. Moreover, the GI50 with MCF7 was 58.3 µM (inactive); in the assay on SW-620, > 100 µM (inactive); with HCT-15, 40.4 µM; in the assay with NCI-H460, 81.8 µM (inactive); with DU-145, 63 µM (inactive); in the assay on NCI-H226 it was 25.5 µM (inactive). For the same compound, the GI50 in the assay on UACC-257 is > 100 µM (inactive); in the assay on NCI-H23, 73.6 µM (inactive); in the assay on UO-31, 33.2 µM (inactive); with COLO 205, > 100 µM (inactive); with K562, 54 µM (inactive); in the assay with SR, > 100 µM (inactive). For the same compound, the GI50 in the assay on SF-295 is > 100 µM (inactive).
As to `COc1cccc(C=C2N=C(c3ccccc3)N(n3c(-c4ccccc4)nc4ccccc4c3=O)C2=O)c1`, the GI50 was 26.5 µM (inactive) with T47D; > 100 µM (inactive) in the assay on SK-OV-3; 42.3 µM (inactive) in the assay with ACHN; 44.5 µM (inactive) with OVCAR-8; 40.2 µM (inactive) in the assay with RPMI-8226; 52 µM (inactive) in the assay with MCF7. The GI50 is 63.2 µM (inactive) in the assay with SK-MEL-28; 74.3 µM (inactive) in the assay on SW-620; 54.3 µM with HCT-15; 35.2 µM (inactive) in the assay on NCI-H460; 83.8 µM (inactive) in the assay with DU-145; > 100 µM (inactive) with NCI-H226. The GI50 with UACC-257 is 30.3 µM (inactive); in the assay on NCI-H23, 71.9 µM (inactive); in the assay on UO-31, 40.1 µM (inactive); in the assay on COLO 205, 54 µM (inactive); in the assay on K562, 68.9 µM (inactive); in the assay with SR, 33.5 µM (inactive). Besides, in the assay on SF-295, the GI50 is 57.4 µM (inactive).
As for `Cc1c(CCOC=O)c(=O)[nH]c2nncn12`, the GI50 with T47D, with SK-OV-3, in the assay on ACHN, in the assay on OVCAR-8, with RPMI-8226 and in the assay on MCF7 was > 100 µM (inactive) throughout. The GI50 was > 100 µM (inactive) in the assay with SK-MEL-28; > 100 µM (inactive) with SW-620; above 100 µM in the assay with HCT-15; > 100 µM (inactive) in the assay on NCI-H460; > 100 µM (inactive) in the assay on DU-145; > 100 µM (inactive) in the assay on NCI-H226. Also, the GI50 in the assay with UACC-257, in the assay with NCI-H23, in the assay on UO-31, in the assay on COLO 205, in the assay on K562 and in the assay with SR was > 100 µM (inactive) throughout. Further, the GI50 with SF-295 was > 100 µM (inactive).
Regarding `CC(C)(CO)NC(=O)c1cccc(C(=O)NC(C)(C)CO)c1Br`, the GI50 with T47D, in the assay on ACHN, with OVCAR-8, in the assay on RPMI-8226, in the assay with SK-MEL-2 and in the assay on MCF7 was > 100 µM (inactive) throughout. Besides, the GI50 in the assay on SK-MEL-28 was > 100 µM (inactive); in the assay with SW-620, > 100 µM (inactive); with HCT-15, above 100 µM; in the assay with NCI-H460, > 100 µM (inactive); in the assay on DU-145, > 100 µM (inactive); in the assay on NCI-H226, > 100 µM (inactive). The GI50 in the assay on UACC-257, in the assay with NCI-H23, with UO-31, with COLO 205, in the assay with K562 and in the assay on SR was > 100 µM (inactive) throughout.
For `CN1CCC2(CC1)/C(=N/C1CCCCC1)NC(=O)N2c1ccccc1`, the GI50 in the assay with T47D, in the assay with SK-OV-3, with ACHN, with OVCAR-8, in the assay on RPMI-8226 and in the assay on MCF7 was > 100 µM (inactive) in each case. Also, the GI50 with SK-MEL-28 is > 100 µM (inactive); in the assay with SW-620, > 100 µM (inactive); with HCT-15, above 100 µM; in the assay with NCI-H460, > 100 µM (inactive); with DU-145, > 100 µM (inactive); in the assay with NCI-H226, > 100 µM (inactive). Further, the GI50 with UACC-257, with NCI-H23, in the assay on UO-31, with COLO 205, with SR and in the assay with SF-295 was > 100 µM (inactive) throughout.
In the case of `N=c1oc2ccc([N+](=O)[O-])cc2cc1C(=O)Nc1ccccn1`, the GI50 in the assay on T47D was 26.8 µM (inactive); in the assay with SK-OV-3, > 100 µM (inactive); in the assay with ACHN, 35.5 µM (inactive); in the assay on OVCAR-8 it was 92.3 µM (inactive); in the assay with RPMI-8226, 54.2 µM (inactive); in the assay on SK-MEL-2, 16.2 µM (inactive). Also, the GI50 is 12.2 µM (inactive) in the assay on MCF7; 28.8 µM (inactive) in the assay on SK-MEL-28; 70.3 µM (inactive) in the assay with SW-620; 44.3 µM in the assay with HCT-15; 69 µM (inactive) in the assay with NCI-H460; 60.4 µM (inactive) with DU-145. For the same compound, the GI50 with NCI-H226 is 71.9 µM (inactive); in the assay on UACC-257, > 100 µM (inactive); in the assay with NCI-H23, 41.3 µM (inactive); with COLO 205, 44 µM (inactive); in the assay on K562, > 100 µM (inactive); in the assay with SR, 58.1 µM (inactive).
Consider `O=C1[C@@H]2[C@@H](c3ccccc3)[C@]2(Cl)C(=O)[C@H]2[C@H](c3ccccc3)[C@@]12Cl`, for which the GI50 in the assay with T47D, in the assay with SK-OV-3, in the assay on ACHN, in the assay on OVCAR-8, in the assay on SK-MEL-2 and with MCF7 was > 100 µM (inactive) each time. Moreover, the GI50 is > 100 µM (inactive) in the assay on SK-MEL-28; > 100 µM (inactive) in the assay on SW-620; above 100 µM with HCT-15; > 100 µM (inactive) in the assay with NCI-H460; > 100 µM (inactive) in the assay with DU-145; > 100 µM (inactive) in the assay on NCI-H226. Further, the GI50 with UACC-257 was > 100 µM (inactive); in the assay with NCI-H23, > 100 µM (inactive); in the assay with UO-31 it was 57 µM (inactive); in the assay with COLO 205, > 100 µM (inactive); in the assay with K562, > 100 µM (inactive); with SR, 0.189 µM (active). For the same compound, in the assay on SF-295, the GI50 was > 100 µM (inactive).
Take `CC1C(OC2O[C@@H]3O[C@@]4(C)CC[C@H]5[C@H](C)CC[C@@H](C2C)[C@@]35O4)O[C@@H]2O[C@@]3(C)CC[C@H]4[C@H](C)CC[C@@H]1[C@@]24O3` (stereo partly specified): the GI50 in the assay with T47D is > 50 µM (inactive); in the assay with SK-OV-3, > 50 µM (inactive); in the assay with ACHN, 1.65 µM (inactive); in the assay with OVCAR-8, > 50 µM (inactive); in the assay with RPMI-8226, > 50 µM (inactive); with SK-MEL-2 it was > 50 µM (inactive). Further, the GI50 with MCF7 was > 50 µM (inactive); with SK-MEL-28, > 50 µM (inactive); in the assay on SW-620, > 50 µM (inactive); in the assay on HCT-15, above 50 µM; with NCI-H460 it was > 50 µM (inactive); in the assay on DU-145, > 50 µM (inactive). In addition, the GI50 in the assay with NCI-H226, in the assay on UACC-257, in the assay on NCI-H23, in the assay with COLO 205, in the assay with K562 and in the assay with SR was > 50 µM (inactive) in each case. Also, the GI50 in the assay on SF-295 is > 50 µM (inactive).
Consider `Cc1nn(-c2ccccc2)c2c1C(c1ccc(Cl)cc1)NC(=S)N2` (stereo unspecified), for which the GI50 in the assay on T47D was > 100 µM (inactive); in the assay on SK-OV-3, 22.9 µM (inactive); with ACHN it was 20.7 µM (inactive); with OVCAR-8, 22.5 µM (inactive); in the assay on RPMI-8226, 19.1 µM (inactive); with SK-MEL-2 it was 17.5 µM (inactive). Moreover, the GI50 with MCF7 is 28.4 µM (inactive); in the assay with SW-620, 23 µM (inactive); with HCT-15 it was 17.5 µM; in the assay on NCI-H460, 23 µM (inactive); in the assay with DU-145, 88.9 µM (inactive); in the assay with NCI-H226 it was 25.9 µM (inactive). Also, the GI50 in the assay on UACC-257 was 36.6 µM (inactive); with NCI-H23, 18.9 µM (inactive); with UO-31, 15 µM (inactive); with COLO 205 it was 17.2 µM (inactive); in the assay on K562 it was 36.1 µM (inactive); in the assay with SR, 36.6 µM (inactive). Also, in the assay on SF-295, the GI50 is 24.5 µM (inactive).
Regarding `O=C1CC(c2ccccc2)C2(C(=O)NC(=S)NC2=O)C(c2ccccc2)C1` (stereo unspecified), the GI50 in the assay on T47D is > 75 µM (inactive); in the assay on ACHN it was > 75 µM (inactive); in the assay with OVCAR-8 it was > 75 µM (inactive); in the assay with RPMI-8226 it was 38.7 µM (inactive); with SK-MEL-2 it was > 75 µM (inactive); in the assay with MCF7, > 75 µM (inactive). The GI50 in the assay on SK-MEL-28 was > 75 µM (inactive); in the assay on SW-620, > 75 µM (inactive); in the assay with HCT-15, above 75 µM; with NCI-H460, > 75 µM (inactive); in the assay with DU-145, > 75 µM (inactive); with NCI-H226 it was > 75 µM (inactive). Further, the GI50 with UACC-257 is > 75 µM (inactive); in the assay with NCI-H23 it was > 75 µM (inactive); in the assay on UO-31, > 75 µM (inactive); with COLO 205, > 75 µM (inactive); in the assay on K562 it was > 75 µM (inactive); with SR, 71 µM (inactive). Moreover, the GI50 in the assay with SF-295 is > 75 µM (inactive).
